Experimental data published in ChEMBL document CHEMBL1201862, “PubChem BioAssay data set” (2004).
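1) Cells in 96-well plates. 2) Compound, 48 h, 5 concentrations. 3) Linear interpolation between surrounding doses. 4) Unreached endpoint = highest concentration. GI50 is the concentration that inhibits growth by half.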 The source made the active and inactive calls. Cut-off read from the data, not from the text of the source: active = GI50 up to about 1.1 µM and inactive = higher.

Experiments:
Assay in all cases: DTP human tumour cell line panel, 48 h
[1] = test system: BT-549
[2] = test system: CAKI-1
[3] = test system: DU-145
[4] = test system: HCT-116
[5] = test system: HL-60
[6] = test system: Hs-578T
[7] = test system: KM12
[8] = test system: MOLT-4
[9] = test system: Malme-3M
[10] = test system: NCI/ADR-RES
[11] = test system: OVCAR-3
[12] = test system: OVCAR-5
[13] = test system: RPMI-8226
[14] = test system: SF-268
[15] = test system: SF-539
[16] = test system: SNB-19
[17] = test system: SW-620
[18] = test system: T47D
[19] = test system: SK-MEL-5
[20] = test system: SR

In the case of `COc1c(-c2nc3ccc(N4CCN(C)CC4)nc3[nH]2)cc(OC)c2c1nc(CCl)n2C`, the GI50 [1] is reported as 18.6 µM (inactive), the GI50 [2] is reported as 16.6 µM (inactive) and the GI50 [3] is reported as 25.4 µM (inactive). For the same compound, the GI50 [4] was 32.2 µM (inactive), the GI50 [5] was 26.5 µM (inactive) and the GI50 [6] was 32.9 µM (inactive). The GI50 [7] was 14.8 µM (inactive), the GI50 [8] was 18.1 µM (inactive) and the GI50 [9] was 17.5 µM (inactive). The GI50 [10] was 56.9 µM (inactive), the GI50 [11] was 28.1 µM (inactive) and the GI50 [12] was 21.6 µM (inactive). The GI50 [13] was 10.5 µM (inactive), the GI50 [14] was 22.4 µM (inactive) and the GI50 [15] was 4.99 µM (inactive). The GI50 [16] was 28.2 µM (inactive), the GI50 [17] was 20.9 µM (inactive) and the GI50 [18] was 16 µM (inactive).

With `Cc1ccc2c(=O)c(C(=O)Nn3c(C)csc3=S)c[nH]c2n1` the GI50 [1] was > 100 µM (inactive), the GI50 [2] was 69 µM (inactive) and the GI50 [3] was > 100 µM (inactive). The GI50 [4] was > 100 µM (inactive), the GI50 [5] was > 100 µM (inactive) and the GI50 [6] was > 100 µM (inactive). The GI50 [7] was > 100 µM (inactive), the GI50 [8] was > 100 µM (inactive) and the GI50 [9] was > 100 µM (inactive). For the same compound, the GI50 [10] was > 100 µM (inactive), the GI50 [11] was > 100 µM (inactive) and the GI50 [12] was > 100 µM (inactive). For the same compound, the GI50 [13] was > 100 µM (inactive), the GI50 [14] was > 100 µM (inactive) and the GI50 [19] was > 100 µM (inactive). The GI50 [16] was > 100 µM (inactive), the GI50 [17] was > 100 µM (inactive) and the GI50 [18] was > 100 µM (inactive).

In the case of `CC1(C)OC[C@@H](O)[C@H](Br)CO1`, the GI50 [1] is reported as > 100 µM (inactive), the GI50 [2] is reported as > 100 µM (inactive) and the GI50 [3] is reported as > 100 µM (inactive). The GI50 [4] was > 100 µM (inactive), the GI50 [5] was > 100 µM (inactive) and the GI50 [6] was 68.2 µM (inactive). For the same compound, the GI50 [7] was > 100 µM (inactive), the GI50 [8] was 65.8 µM (inactive) and the GI50 [9] was > 100 µM (inactive). The GI50 [11] was > 100 µM (inactive), the GI50 [12] was > 100 µM (inactive) and the GI50 [13] was 67.3 µM (inactive). The GI50 [14] was 53.8 µM (inactive), the GI50 [15] was > 100 µM (inactive) and the GI50 [16] was > 100 µM (inactive). For the same compound, the GI50 [20] was > 100 µM (inactive), the GI50 [17] was > 100 µM (inactive) and the GI50 [18] was > 100 µM (inactive).

In the case of `Cc1cc(NS(=O)(=O)c2ccc(Nc3c4ccccc4nc4c(C(=O)NCCO)cccc34)cc2)no1`, the GI50 [1] is reported as 16.8 µM (inactive), the GI50 [2] is reported as 26.1 µM (inactive) and the GI50 [3] is reported as 34.7 µM (inactive). For the same compound, the GI50 [5] was 37.9 µM (inactive), the GI50 [6] was 21.2 µM (inactive) and the GI50 [7] was 23.9 µM (inactive). For the same compound, the GI50 [8] was 7.41 µM (inactive), the GI50 [9] was 28.1 µM (inactive) and the GI50 [10] was > 100 µM (inactive). For the same compound, the GI50 [11] was 21.9 µM (inactive), the GI50 [12] was 13.3 µM (inactive) and the GI50 [13] was 19.4 µM (inactive). For the same compound, the GI50 [14] was 30.5 µM (inactive), the GI50 [19] was 23.4 µM (inactive) and the GI50 [16] was 37.4 µM (inactive). The GI50 [20] was 22.5 µM (inactive), the GI50 [17] was 22.6 µM (inactive) and the GI50 [18] was 19.7 µM (inactive).

For `O=C(CSCC(=O)N/N=C/c1ccccc1)N/N=C\c1ccccc1`, the GI50 [1] was 2.2 µM (inactive), the GI50 [2] was > 100 µM (inactive) and the GI50 [3] was > 100 µM (inactive). The GI50 [4] was > 100 µM (inactive), the GI50 [6] was > 100 µM (inactive) and the GI50 [7] was 16.7 µM (inactive). The GI50 [8] was 68.2 µM (inactive), the GI50 [9] was > 100 µM (inactive) and the GI50 [10] was > 100 µM (inactive). For the same compound, the GI50 [11] was > 100 µM (inactive), the GI50 [12] was > 100 µM (inactive) and the GI50 [13] was 38.1 µM (inactive). For the same compound, the GI50 [14] was > 100 µM (inactive), the GI50 [15] was 81.3 µM (inactive) and the GI50 [19] was > 100 µM (inactive). For the same compound, the GI50 [16] was > 100 µM (inactive), the GI50 [17] was > 100 µM (inactive) and the GI50 [18] was 77.6 µM (inactive).

With `Nc1nc(Cl)c(N)c(NCC2(CO)CCC(OCc3ccccc3)C2)n1` (stereo not given) the GI50 [1] was 61.9 µM (inactive), the GI50 [2] was > 100 µM (inactive) and the GI50 [3] was > 100 µM (inactive). The GI50 [4] was > 100 µM (inactive), the GI50 [6] was > 100 µM (inactive) and the GI50 [7] was > 100 µM (inactive). For the same compound, the GI50 [8] was 31.7 µM (inactive), the GI50 [9] was 39.5 µM (inactive) and the GI50 [10] was 13.5 µM (inactive). For the same compound, the GI50 [11] was > 100 µM (inactive), the GI50 [12] was > 100 µM (inactive) and the GI50 [14] was > 100 µM (inactive). For the same compound, the GI50 [15] was > 100 µM (inactive), the GI50 [19] was 0.305 µM (active) and the GI50 [16] was > 100 µM (inactive). The GI50 [17] was > 100 µM (inactive) and the GI50 [18] was 0.372 µM (active).

With `C[C@@H](CO)C1=C(O)C(=O)c2c(ccc3c2CCCC3(C)C)C1=O` the GI50 [1] was 37.1 µM (inactive), the GI50 [2] was 44.9 µM (inactive) and the GI50 [3] was 47 µM (inactive). The GI50 [4] was 45.5 µM (inactive), the GI50 [5] was < 0.01 µM (active) and the GI50 [6] was 51.2 µM (inactive). For the same compound, the GI50 [7] was 37.2 µM (inactive), the GI50 [8] was 42.1 µM (inactive) and the GI50 [9] was 15.9 µM (inactive). The GI50 [10] was 38.8 µM (inactive), the GI50 [11] was 28.2 µM (inactive) and the GI50 [12] was 36.6 µM (inactive). For the same compound, the GI50 [13] was 23 µM (inactive), the GI50 [14] was 32.2 µM (inactive) and the GI50 [19] was 30.5 µM (inactive). For the same compound, the GI50 [16] was 25.7 µM (inactive), the GI50 [17] was 28.3 µM (inactive) and the GI50 [18] was 50.6 µM (inactive).
